# In US9034909B2, “Use of organic compound for the treatment of Noonan Syndrome” (Novartis AG, priority 2011, dated 2015):
# Biological target: MEK1 (Homo sapiens, UniProt Q02750)
# Test: isolated enzyme assay, MEK1 inhibition
# Format: biochemical
# Details: read-out: 50% inhibition (IC50) value
# From the text: The compound of Formula (I) is 6-(4-bromo-2-fluorophenylamino)-7-fluoro-3-methyl-3H-benzoimidazole-5-carboxylic acid (2-hydroxyethoxy)-amide (COMPOUND A). The compound of Formula (I) is described in PCT Application No. WO 03/077914, which is hereby incorporated by reference in its entirety hereto, and methods for its preparation have been described, for example, in Example 18 therein.
# Sequence of MEK1 (Q02750 whole entry, species assumed): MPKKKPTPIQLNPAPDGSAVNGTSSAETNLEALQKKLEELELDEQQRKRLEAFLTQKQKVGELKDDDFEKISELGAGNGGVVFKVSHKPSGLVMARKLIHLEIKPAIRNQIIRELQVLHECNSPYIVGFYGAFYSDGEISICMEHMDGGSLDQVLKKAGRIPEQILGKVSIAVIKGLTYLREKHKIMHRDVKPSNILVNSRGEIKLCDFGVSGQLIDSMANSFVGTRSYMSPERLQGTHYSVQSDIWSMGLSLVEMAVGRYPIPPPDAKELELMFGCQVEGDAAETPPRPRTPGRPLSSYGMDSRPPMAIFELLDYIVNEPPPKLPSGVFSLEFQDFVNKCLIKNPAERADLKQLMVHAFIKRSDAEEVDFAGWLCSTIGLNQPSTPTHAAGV
compound,measurement,value
"Cn1cnc2c(F)c(Nc3ccc(Br)cc3F)c(C(=O)NOCCO)cc21 [COMPOUND A, 6-(4-bromo-2-fluorophenylamino)-7-fluoro-3-methyl-3H-benzoimidazole-5-carboxylic acid (2-hydroxyethoxy)-amide]",IC50,12 nM
